The target of this assay is T1, JAK2 (JH1domain-catalytic, Y1007F,Y1008F) kinase (Homo sapiens, UniProt O60674, Y1007F/Y1008F).
T1 construct: JAK2 (JH1domain-catalytic, Y1007F,Y1008F) kinase was expressed as N-terminal fusion; made in house; host or cells: transiently transfected HEK293 cells
The assay is described as follows: JAK2 JH1 Domain Binding Assay. The conditions noted are these: qPCR readout.

Molecules are shown by their SMILES.

T1 sequence (O60674 849-1124 Y1007F/Y1008F limits assumed): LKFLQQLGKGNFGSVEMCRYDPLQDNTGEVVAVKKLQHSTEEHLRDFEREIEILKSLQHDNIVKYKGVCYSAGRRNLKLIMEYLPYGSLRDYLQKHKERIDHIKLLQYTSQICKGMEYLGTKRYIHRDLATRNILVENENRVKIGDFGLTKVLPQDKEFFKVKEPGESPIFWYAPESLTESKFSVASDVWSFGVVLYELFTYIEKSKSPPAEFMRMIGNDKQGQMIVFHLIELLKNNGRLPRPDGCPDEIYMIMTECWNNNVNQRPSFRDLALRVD

Consider `Cn1c(Nc2cc(C(C)(C)C)n([C@@H]3CCC[C@@H]3O)n2)nc2ncc(Oc3cnn4ccncc34)c(Cl)c21` (single isomer, unassigned) [Example I-60-b], for which the Kd was less than 10 nM. To `Cn1c(Nc2cc(C3CC3)nn([C@@H]3CCCOC3)c2=O)nc2ncc(Oc3cnn4ccccc34)c(Cl)c21` (single isomer, unassigned) [Example I-148-a] belongs less than 10 nM; to `CN1CC[C@@H](n2nc(Nc3nc4ncc(Oc5cnn6cc(F)ccc56)c(Cl)c4n3C)cc2C(C)(C)C)C1` [Example I-170], 10 to 50 nM. In the case of `CN1CCC(Oc2cc(Nc3nc4ncc(Oc5cnn6ccncc56)c(Cl)c4n3C)cc(C(F)(F)F)c2)CC1` [Example I-206, 7-chloro-1-methyl-N-(3-((1-methylpiperidin-4-yl)oxy)-5-(trifluoromethyl)phenyl)-6-(pyrazolo[1,5-a]pyrazin-3-yloxy)-1H-imidazo[4,5-b]pyridin-2-amine] it was less than 10 nM; in that of `COCCN1CCC(n2nc(Nc3nc4ncc(Oc5cnn6ccncc56)c(C(F)F)c4n3C)cc2C(C)(C)C)C1` (stereo in doubt) [Example I-52, (S)—N-(5-(tert-butyl)-1-(1-(2-methoxyethyl)pyrrolidin-3-yl)-1H-pyrazol-3-yl)-7-(difluoromethyl)-1-methyl-6-(pyrazolo[1,5-a]pyrazin-3-yloxy)-1H-imidazo[4,5-b]pyridin-2-amine], 10 to 50 nM. To `Cc1cn(-c2cc(Nc3nc4ncc(Oc5cnn6ccncc56)c(Cl)c4n3C)cc(C(F)(F)F)c2)cn1` [Example I-180, 7-chloro-1-methyl-N-(3-(4-methyl-1H-imidazol-1-yl)-5-(trifluoromethyl)phenyl)-6-(pyrazolo[1,5-a]pyrazin-3-yloxy)-1H-imidazo[4,5-b]pyridin-2-amine] belongs less than 10 nM. The molecule `CO[C@H]1CCN(Cc2cc(Nc3nc4ncc(Oc5cnn6ccncc56)c(Cl)c4n3C)cc(C(F)(F)F)c2)C1` [Example I-181, (S)-7-chloro-N-(3-((3-methoxypyrrolidin-1-yl)methyl)-5-(trifluoromethyl)phenyl)-1-methyl-6-(pyrazolo[1,5-a]pyrazin-3-yloxy)-1H-imidazo[4,5-b]pyridin-2-amine] registered a Kd of less than 10 nM.

Turning to `CNc1nccn2ncc(Oc3cnc4nc(Nc5cc(C(F)(F)F)n([C@@H]6CCOC6)n5)n(C)c4c3Cl)c12` [Example I-276, (R)-7-chloro-1-methyl-6-((4-(methylamino)pyrazolo[1,5-a]pyrazin-3-yl)oxy)-N-(1-(tetrahydrofuran-3-yl)-5-(trifluoromethyl)-1H-pyrazol-3-yl)-1H-imidazo[4,5-b]pyridin-2-amine], the Kd was 10 to 50 nM. To `COc1c(Oc2cnn3ccccc23)cnc2nc(Nc3cc(C4CC4)cn([C@H]4CCCOC4)c3=O)n(C)c12` (single isomer, unassigned) [Example I-101-a] belongs less than 10 nM. `COc1c(Oc2cnn3ccncc23)cnc2nc(Nc3cc(C4CC4)cn([C@H]4C[C@H](O)C4)c3=O)n(C)c12` [Example I-75, trans-5-cyclopropyl-1-(3-hydroxycyclobutyl)-3-((7-methoxy-1-methyl-6-(pyrazolo[1,5-a]pyrazin-3-yloxy)-1H-imidazo[4,5-b]pyridin-2-yl)amino)pyridin-2(1H)-one]: the Kd is less than 10 nM. For `CNc1nccn2ncc(Oc3cnc4nc(Nc5cc(C(F)(F)F)cn([C@H]6C[C@@H](O)C6)c5=O)n(C)c4c3Cl)c12` [Example I-214, 3-((7-chloro-1-methyl-6-((4-(methylamino)pyrazolo[1,5-a]pyrazin-3-yl)oxy)-1H-imidazo[4,5-b]pyridin-2-yl)amino)-1-((1s,3s)-3-hydroxycyclobutyl)-5-(trifluoromethyl)pyridin-2(1H)-one], the Kd was less than 10 nM. For `Cn1c(Nc2cc(C(C)(C)C)n([C@@H]3CCOC3)n2)nc2ncc(Oc3cnc4[nH]c(C5CC5)cc4c3)cc21` [Example I-1, (R)—N-(5-(tert-butyl)-1-(tetrahydrofuran-3-yl)-1H-pyrazol-3-yl)-6-((2-cyclopropyl-1H-pyrrolo[2,3-b]pyridin-5-yl)oxy)-1-methyl-1H-imidazo[4,5-b]pyridin-2-amine], the Kd was in the range of 10 to 50 nM.

Molecule `CNc1nccn2ncc(Oc3cnc4nc(Nc5cc(C6CCN(C)CC6)cc(C(F)(F)F)c5)n(C)c4c3Cl)c12` [Example I-254, 7-chloro-1-methyl-6-((4-(methylamino)pyrazolo[1,5-a]pyrazin-3-yl)oxy)-N-(3-(1-methylpiperidin-4-yl)-5-(trifluoromethyl)phenyl)-1H-imidazo[4,5-b]pyridin-2-amine] returned a Kd of less than 10 nM. To `CNc1nccn2ncc(Oc3cnc4nc(Nc5cc(CN6CC(O)C6)cc(C(F)(F)F)c5)n(C)c4c3Cl)c12` [Example I-264, 1-(3-((7-chloro-1-methyl-6-((4-(methylamino)pyrazolo[1,5-a]pyrazin-3-yl)oxy)-1H-imidazo[4,5-b]pyridin-2-yl)amino)-5-(trifluoromethyl)benzyl)azetidin-3-ol] belongs 10 to 50 nM; to `Cn1cc(C(F)(F)F)cc(Nc2nc3ncc(Oc4cnn5ccc(N6CCOCC6)cc45)c(Cl)c3n2C)c1=O` [Example I-166, 3-((7-chloro-1-methyl-6-((5-morpholinopyrazolo[1,5-a]pyridin-3-yl)oxy)-1H-imidazo[4,5-b]pyridin-2-yl)amino)-1-methyl-5-(trifluoromethyl)pyridin-2(1H)-one], less than 10 nM. To `Cc1cc2ncc(Oc3cnc4nc(Nc5cc(C(C)(C)C)n([C@@H]6CCOC6)n5)n(C)c4c3Cl)cn2n1` [Example I-5, (R)—N-(5-(tert-butyl)-1-(tetrahydrofuran-3-yl)-1H-pyrazol-3-yl)-7-chloro-1-methyl-6-((2-methylpyrazolo[1,5-a]pyrimidin-6-yl)oxy)-1H-imidazo[4,5-b]pyridin-2-amine] belongs 10 to 50 nM; to `COc1c(Oc2cnn3ccncc23)cnc2nc(Nc3cc(C(C)(C)C)n([C@@H]4CCN(CCF)C4)n3)n(C)c12` [Example I-62, (R)—N-(5-(tert-butyl)-1-(1-(2-fluoroethyl)pyrrolidin-3-yl)-1H-pyrazol-3-yl)-7-methoxy-1-methyl-6-(pyrazolo[1,5-a]pyrazin-3-yloxy)-1H-imidazo[4,5-b]pyridin-2-amine], 10 to 50 nM; to `Cn1c(Nc2ccc(CN3CCOCC3)c(C(F)(F)F)c2)nc2ncc(Oc3cnn4ccncc34)c(Cl)c21` [Example I-149, 7-chloro-1-methyl-N-(4-(morpholinomethyl)-3-(trifluoromethyl)phenyl)-6-(pyrazolo[1,5-a]pyrazin-3-yloxy)-1H-imidazo[4,5-b]pyridin-2-amine], less than 10 nM. In the case of `Cn1c(Nc2cc(C(C)(C)C)n([C@@H]3CCC[C@@H]3O)n2)nc2ncc(Oc3cnn4ccncc34)c(C(F)F)c21` (single isomer, unassigned) [Example I-71-b] it was 10 to 50 nM. As for `Cn1cc(C2CC2)cc(Nc2nc3ncc(Oc4cnc5cnc(C6CC6)n5c4)c(Cl)c3n2C)c1=O` [Example I-84, 3-((7-chloro-6-((6-cyclopropylimidazo[1,5-a]pyrimidin-3-yl)oxy)-1-methyl-1H-imidazo[4,5-b]pyridin-2-yl)amino)-5-cyclopropyl-1-methylpyridin-2(1H)-one], the Kd was less than 10 nM. In the case of `CO[C@@H]1CCN(Cc2ccc(Nc3nc4ncc(Oc5cnn6ccncc56)c(Cl)c4n3C)cc2C(F)(F)F)C1` [Example I-176, (R)-7-chloro-N-(4-((3-methoxypyrrolidin-1-yl)methyl)-3-(trifluoromethyl)phenyl)-1-methyl-6-(pyrazolo[1,5-a]pyrazin-3-yloxy)-1H-imidazo[4,5-b]pyridin-2-amine] it was less than 10 nM; in that of `Cn1c(Nc2cc(C(C)(C)C)n(C3CC4(COC4)C3)n2)nc2ncc(Oc3cnn4ccncc34)c(Cl)c21` [Example I-49, N-(5-(tert-butyl)-1-(2-oxaspiro[3.3]heptan-6-yl)-1H-pyrazol-3-yl)-7-chloro-1-methyl-6-(pyrazolo[1,5-a]pyrazin-3-yloxy)-1H-imidazo[4,5-b]pyridin-2-amine], less than 10 nM. To `Cn1c(=O)c(Nc2nc3ncc(Oc4cnn5ccncc45)c(Cl)c3n2C)cn(C2CC2)c1=O` [Example I-165, 5-((7-chloro-1-methyl-6-(pyrazolo[1,5-a]pyrazin-3-yloxy)-1H-imidazo[4,5-b]pyridin-2-yl)amino)-1-cyclopropyl-3-methylpyrimidine-2,4(1H,3H)-dione] belongs 1000 to 5000 nM; to `CNc1cn2ncc(Oc3cnc4nc(Nc5cc(C(F)(F)F)cn(-c6cccnc6)c5=O)n(C)c4c3Cl)c2cn1` [Example I-324, 3-((7-chloro-1-methyl-6-((6-(methylamino)pyrazolo[1,5-a]pyrazin-3-yl)oxy)-1H-imidazo[4,5-b]pyridin-2-yl)amino)-5-(trifluoromethyl)-2H-[1,3′-bipyridin]-2-one], 50 to 1000 nM. For `COc1c(Oc2cnn3ccccc23)cnc2nc(Nc3cc(C4CC4)cn([C@H]4C[C@@H](O)C4)c3=O)n(C)c12` [Example I-112, cis-5-cyclopropyl-1-(3-hydroxycyclobutyl)-3-((7-methoxy-1-methyl-6-(pyrazolo[1,5-a]pyridin-3-yloxy)-1H-imidazo[4,5-b]pyridin-2-yl)amino)pyridin-2(1H)-one], the Kd is less than 10 nM. In the case of `Cn1cc(C2CC2)cc(Nc2nc3ncc(Oc4cnc5[nH]ncc5c4)c(Cl)c3n2C)c1=O` [Example I-92, 3-((6-((1H-pyrazolo[3,4-b]pyridin-5-yl)oxy)-7-chloro-1-methyl-1H-imidazo[4,5-b]pyridin-2-yl)amino)-5-cyclopropyl-1-methylpyridin-2(1H)-one] it was less than 10 nM. To `Cn1c(Nc2cc(C(F)(F)F)cn([C@@H]3CCCOC3)c2=O)nc2ncc(Oc3cnn4ccncc34)c(Cl)c21` (single isomer, unassigned) [Example I-107-a] belongs less than 10 nM. Molecule `Cn1c(Nc2cc(C(F)(F)F)n(C3CC4(CCOCC4)C3)n2)nc2ncc(Oc3cnc4[nH]ccc4c3)c(C#N)c21` [Example I-401, 6-((1H-pyrrolo[2,3-b]pyridin-5-yl)oxy)-2-((1-(7-oxaspiro[3.5]nonan-2-yl)-5-(trifluoromethyl)-1H-pyrazol-3-yl)amino)-1-methyl-1H-imidazo[4,5-b]pyridine-7-carbonitrile] returned a Kd of 10 to 50 nM.

The record behind these values is patent publication US12043632B2, “6-heteroaryloxy benzimidazoles and azabenzimidazoles as JAK2 inhibitors” (Ajax Therapeutics, Inc., priority 2020, dated 2024).
